ChEMBL document CHEMBL1141991, “Functionalized dendrimers as endotoxin sponges” (Bioorg Med Chem Lett, 2005)
pIC50: −log10 of the molar value.

Assays:
Mus musculus = species: Mus musculus; assay: Effective dose against lipopolysaccharide in BC fluorescenced murine macrophages J774A; assay type: functional
[1] = Inhibitory concentration against lipopolysaccharide in BC fluorescenced murine macrophages J774A; assay type: functional, Mus musculus

Row | pIC50 [1] | Sequence | ED50 (Mus musculus) [µM]
1 |  | POLYMYXIN B [listing 1 of 2 here] | 0.31
2 | 3.68 | POLYMYXIN B [listing 2 of 2 here] | 
